Laboratory results: PMC4216207 (Journal of Medicinal Chemistry, 2014)

What was measured:
[1] = tested on: lentiviral vector harboring WT IN; experiment: microbe, parasite or virus in culture; assay type: cell-based, HIV-1; details: for antiviral potency against WT vector with increasing FBS: 5%, 10% and 15% FBS, relative to values at 5% FBS, data not shown
[2] = cellular cytotoxicity assay; assay type: cell-based; details: human, HOS human osteosarcoma cells
[3] = tested on: HIV-1 construct carrying IN mutation R263 K; experiment: single-round HIV-1 infectivity assay, R263 K IN mutant; assay type: cell-based; details: Human immunodeficiency virus 1, read-out: EC50 R263 K IN mutant
[4] = tested on: HIV-1 construct carrying IN mutation G118R; experiment: single-round HIV-1 infectivity assay, G118R IN mutant; assay type: cell-based; details: Human immunodeficiency virus 1, read-out: EC50 G118R IN mutant

Q: With `CC(=O)OCCNc1c(C(=O)NCc2ccc(F)cc2F)c(=O)n(O)c2ncccc12` [5p, 2-((3-((2,4-Difluorobenzyl)carbamoyl)-1-hydroxy-2-oxo-1,2-dihydro-1,8-naphthyridin-4-yl)amino)ethyl Acetate] as the molecule, how does the “antiviral potency against WT vector with increasing FBS” value [1] read?
A: essentially unchanged

Q: With `COC(=O)CNc1c(C(=O)NCc2ccc(F)cc2F)c(=O)n(O)c2ncccc12` [5q, Methyl 2-((3-((2,4-Difluorobenzyl)carbamoyl)-1-hydroxy-2-oxo-1,2-dihydro-1,8-naphthyridin-4-yl)amino)acetate] as the molecule, how does the “antiviral potency against WT vector with increasing FBS” value [1] read?
A: essentially unchanged

Q: For `Nc1c(C(=O)NCc2ccc(F)cc2F)c(=O)n(O)c2ncccc12` [5v, 4-Amino-N-(2,4-difluorobenzyl)-1-hydroxy-2-oxo-1,2-dihydro-1,8-naphthyridine-3-carboxamide], which “antiviral potency against WT vector with increasing FBS” value [1] is on record?
A: essentially unchanged

Q: For `COC(=O)[C@H](Nc1c(C(=O)NCc2ccc(F)cc2F)c(=O)n(O)c2ncccc12)c1ccccc1` [(R)-5s, Methyl (R)-2-((3-((2,4-Difluorobenzyl)carbamoyl)-1-hydroxy-2-oxo-1,2-dihydro-1,8-naphthyridin-4-yl)amino)-2-phenylacetate], which CC50 [2] is on record?
A: > 250 µM

Q: Which CC50 [2] does the source give for `COC(=O)[C@@H](CO)Nc1c(C(=O)NCc2ccc(F)cc2F)c(=O)n(O)c2ncccc12` [(R)-5t, Methyl (R)-2-((3-((2,4-Difluorobenzyl)carbamoyl)-1-hydroxy-2-oxo-1,2-dihydro-1,8-naphthyridin-4-yl)amino)-3-hydroxypropanoate] here?
A: > 250 µM

Q: Which CC50 [2] does the source give for `COC(=O)[C@H](C)Nc1c(C(=O)NCc2ccc(F)cc2F)c(=O)n(O)c2ncccc12` [(S)-5r, Methyl (S)-2-((3-((2,4-Difluorobenzyl)carbamoyl)-1-hydroxy-2-oxo-1,2-dihydro-1,8-naphthyridin-4-yl)amino)propanoate] here?
A: > 250 µM

Q: For `Cc1nnc(C(=O)NC(C)(C)c2nc(C(=O)NCc3ccc(F)cc3)c(O)c(=O)n2C)o1` [compound 1, raltegravir], which EC50 [3] is on record?
A: 9 ± 4 nM

Q: And the EC50 ([1]; Human immunodeficiency virus 1, read-out: EC50 (WT))?
A: 4 ± 2 nM

Q: What about the EC50 [4] of the same molecule?
A: 36 ± 5 nM
